# Like-named read-outs stand apart in the source and are kept apart here.
# Legend:
# AA8 = assay: cytotoxicity, 4 h aerobic drug exposure, AA8; assay type: cell-based, Chinese hamster; conditions: read-out: IC50 AA8
# UV4 cell line = assay: cytotoxicity, 4 h aerobic drug exposure, UV4; assay type: cell-based, Chinese hamster; conditions: read-out: IC50 UV4
# EMT6 = assay: cytotoxicity, 4 h aerobic drug exposure, EMT6; assay type: cell-based, murine; conditions: read-out: IC50 EMT6
# SKOV3 [1] = assay: cytotoxicity, 4 h aerobic drug exposure, SKOV3; assay type: cell-based, human; conditions: read-out: IC50 SKOV3
# HT29 cultures = assay: activation by endogenous enzymes under hypoxia (Table 4 and FIG. 2); assay type: cell-based; conditions: summary of Table 4 and FIG. 2
# Description: (§1) The metal complexes also show an ability to be activated by endogenous enzymes under hypoxia, as shown for metal complex M1 in Table 4 and FIG. 2. […] Thus the metal complexes have utility as hypoxia- as well as radiation-activated cytotoxins.
# [2] = tested on: panel of mammalian cell lines; assay: cytotoxicity in a panel of mammalian cell lines (summary in words); conditions: summary of Table 2
# A549 wt/s = assay: cytotoxicity under oxic and anoxic conditions, A549 wt/s; assay type: cell-based, human; conditions: for IC50: Homo sapiens, A549, 4 h exposure
# Procedure: as §1
# (§2) In Table 4, A549wt/s is a wild-type human […] carcinoma cell line, SKOV3 is a human ovarian cancer cell line and WiDr-2 is a clonal cell line derived from the WiDr human colon carcinoma line. IC50s (in μM are determined under both oxic and hypoxic conditions, and the hypoxic cytotoxicity ratio (HCR) is the average intra-experiment ratio of the IC50s measured under oxic and hypoxic conditions.
# SKOV3 [3] = assay: cytotoxicity under oxic and anoxic conditions, SKOV3; assay type: cell-based, human; conditions: for IC50: Homo sapiens, SK-OV-3, 4 h exposure
# Procedure: as §1, §2
# [4] = Cricetulus griseus, CHO-AA8, 4 h
# [5] = average intra-experiment ratio of IC50s oxic/hypoxic
# [6] = 4 h aerobic exposure, mean ± sem
compound,measurement,setting,value
CN(C)CCOC1(O)C=CC2=NC(C(=O)N3CC(CCl)c4c3ccc3ncccc43)=CC2=C1 (centres unmarked),melting point,,176 to 179 °C
COc1ccc2[nH]c(C(=O)N3CC(CCl)c4c3cc(O)c3ncccc43)cc2c1 (centres unmarked),melting point,,186 to 189 °C
COc1ccc(/C=C/C(=O)N2CC(CCl)c3c2cc(O)c2ncccc32)cc1 (centres unmarked),melting point,,208 to 211 °C
COc1ccc(/C=C/C(=O)N2CC(CCl)c3c2cc(O)c2ncccc32)cc1O (centres unmarked),melting point,,215 to 218 °C
Cl.Cl.Cl.Cl.O=S(=O)(O)CCCN1CCNCCN(CCCS(=O)(=O)O)CCNCC1,melting point,,279 to 281 °C
Cl.Cl.Cl.Cl.O=S(=O)(O)CCCCN1CCNCCNCCNCC1,melting point,,301 to 303 °C
"Oc1cccc2cccnc12 [Compound 8-HQ, 8-hydroxyquinoline, reference compound]",IC50,AA8; [4],2.07 ± 0.02 µM
same,IC50,"UV4 cell line; Cricetulus griseus, UV4, 4 h",2.16 ± 0.12 µM
same,IC50,"EMT6; Mus musculus, EMT6, 4 h",3.92 ± 1.04 µM
same,IC50,"SKOV3 [1]; Homo sapiens, SK-OV-3, 4 h",4.07 ± 0.89 µM
"COc1cc2cc(C(=O)N3CC(CCl)c4c3cc(O)c3ncccc43)[nH]c2c(OC)c1OC (centres unmarked) [Compound 18a, 1-(Chloromethyl)-5-hydroxy-3-[(5,6,7-trimethoxyindol-2-yl)carbonyl]-2,3-dihydro-1H-pyrrolo[3,2-f]quinoline]",IC50,AA8; [4],0.00014 ± 2.2e-05 µM
same,"activation by endogenous enzymes under hypoxia, in words",HT29 cultures,not activated by endogenous enzymes under hypoxic conditions
same,IC50,"UV4 cell line; Cricetulus griseus, UV4, 4 h",7e-05 ± 1.5e-05 µM
same,cytotoxicity in words,[2],exceptionally cytotoxic
same,IC50,"EMT6; Mus musculus, EMT6, 4 h",5.1e-05 ± 8e-06 µM
same,IC50,"A549 wt/s; anoxic, read-out: IC50 A549 wt/s anoxic",50 ± 14 pM
same,IC50,"A549 wt/s; oxic, read-out: IC50 A549 wt/s oxic",50 ± 16 pM
same,HCR A549 wt/s (hypoxic cytotoxicity ratio),A549 wt/s; [5],0.79 ± 0.35(2)
same,IC50,"SKOV3 [1]; Homo sapiens, SK-OV-3, 4 h",0.00025 ± 3.7e-05 µM
same,IC50,"SKOV3 [3]; anoxic, read-out: IC50 SKOV3 anoxic",0.00035 ± 9.3e-05 µM
same,IC50,"SKOV3 [3]; oxic, read-out: IC50 SKOV3 oxic",0.00025 ± 3.7e-05 µM
same,HCR SKOV3 (hypoxic cytotoxicity ratio),SKOV3 [3]; [5],0.61(1)
"COc1cc2cc(C(=O)N3CC(CCl)c4c3cc(N)c3ncccc43)[nH]c2c(OC)c1OC (centres unmarked) [Compound 27, 5-Amino-1-(chloromethyl)-3-[(5,6,7-trimethoxyindol-2-yl)carbonyl]-2,3-dihydro-1H-pyrrolo[3,2-f]quinoline]",IC50,"AA8; Cricetulus griseus, CHO-AA8, 4 h aerobic exposure, mean ± sem",0.0079 ± 0.002 µM
same,IC50,"UV4 cell line; Cricetulus griseus, UV4, 4 h aerobic exposure, mean ± sem",0.0029 ± 0.006 µM
same,melting point,,258 to 263 °C
same,cytotoxicity in words,[2],exceptionally cytotoxic
same,IC50,"EMT6; Mus musculus, EMT6, 4 h aerobic exposure, mean ± sem",0.0026 ± 0.0005 µM
same,IC50,"SKOV3 [1]; Homo sapiens, SK-OV-3, 4 h aerobic exposure, mean ± sem",0.012 ± 0.0023 µM
"COc1cc2cc(C(=O)N3CC(CCl)c4c3cc(NCCN)c3ccccc43)[nH]c2c(OC)c1OC.Cl.Cl (centres unmarked) [Compound 29, 5-(2-aminoethylamino)-3-[(5,6,7-trimethoxyindol-2-yl)carbonyl]-1-(chloromethyl)-1,2-dihydro-3H-benz[e]indole dihydrochloride]",IC50,AA8; [4],0.0058 ± 0.0007 µM
same,IC50,"UV4 cell line; Cricetulus griseus, UV4, 4 h",0.0041 ± 0.0003 µM
same,melting point,,> 200 °C
same,cytotoxicity in words,[2],exceptionally cytotoxic
same,IC50,"EMT6; Mus musculus, EMT6, 4 h",0.0028 µM
same,IC50,"SKOV3 [1]; Homo sapiens, SK-OV-3, 4 h",0.0062 µM
"C1CNCCNCCNCCN1 [Cyclen, reference compound]",IC50,AA8; [6],13300 ± 2670 µM
same,IC50,UV4 cell line; [6],13800 ± 2180 µM
same,IC50,EMT6; [6],9710 ± 2710 µM
same,IC50,SKOV3 [1]; [6],11500 ± 4410 µM

# — patent US7064117B2, “Anti-cancer 2,3-dihydro-1H-pyrrolo[3,2-f]quinoline complexes of cobalt and chromium” (Auckland Uniservices Limited, priority 2001, dated 2006)
